Assay results published in patent publication US20230121721A1, “MONOACYLGLYCEROL LIPASE INHIBITORS” (STICHTING HET NEDERLANDS KANKER INSTITUUT - ANTONI VAN …, priority 2020, published 2023).

target: T1, hMAGL (MAGL-overexpressing membrane preparations from transiently transfected HEK293T cells) (Homo sapiens, UniProt Q99685); experiment: MAGL activity assay (2-AG hydrolysis, glycerol coupled to Amplifu Red fluorescence); format: biochemical; conditions: hMAGL-overexpressing HEK293T membranes, 25 μM 2-AG substrate, 20 min. inhibitor incubation
T1 construct: expressed in transfected cells; host or cells: HEK293T (transient transfection), membrane preparations
T1 sequence (Q99685 1-303): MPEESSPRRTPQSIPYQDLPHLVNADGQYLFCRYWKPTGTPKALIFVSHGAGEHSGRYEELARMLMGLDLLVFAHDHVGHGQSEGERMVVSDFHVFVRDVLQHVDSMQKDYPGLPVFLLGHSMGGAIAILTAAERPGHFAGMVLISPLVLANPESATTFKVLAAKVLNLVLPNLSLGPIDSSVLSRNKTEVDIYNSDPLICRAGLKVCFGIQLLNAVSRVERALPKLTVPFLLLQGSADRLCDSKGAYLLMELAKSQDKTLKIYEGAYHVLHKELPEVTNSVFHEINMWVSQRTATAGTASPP
Description: The MAGL activity assay is based on the production of glycerol from 2-arachidonoylglycerol (2-AG) hydrolysis by MAGL-overexpressing membrane preparations from transiently transfected HEK293T cells, as previously reported in van der Wel T et al., “A natural substrate-based fluorescence assay for inhibitor screening on diacylglycerol lipase”, J Lipid Res., 2015, 56(4), 927-35. The produced glycerol is coupled to the oxidation of commercially available Amplifu™ Red (Sigma-Aldrich Chemie N.V., Zwijndrecht, Netherlands) via a multi-enzyme cascade, resulting in a fluorescent signal from the dye resorufin.
Standard assays were performed in HEMNB buffer (50 mM HEPES pH 7.4, 1 mM EDTA, 5 mM MgCl2, 100 mM NaCl, 0.5% (w/v) BSA) in black, flat bottom 96-wells plates. Final protein concentration of membrane preparations from overexpressing hMAGL HEK293T cells was 1.5 μg/mL (0.3 μg per well). Inhibitors were added from 40× concentrated DMSO stocks. […] Final assay concentrations: 0.2 U/mL GK, GPO and HRP, 0.125 mM ATP, 10 μM Amplifu™ Red, 25 μM 2-AG, 5% DMSO, 0.5% ACN in a total volume of 200 μL.
For IC50 determination, the MAGL-overexpressing membranes were incubated with different inhibitor concentrations. Slopes of corrected fluorescence in time were determined in the linear interval of t=10 to t=35 min and then scaled to the corrected positive control of hMAGL-overexpressing membranes treated with vehicle (DMSO) as a 100% activity reference point. The data was exported to GraphPad Prism 5.0 and analysed in a non-linear dose-response analysis with variable slope.

Row | SMILES | IC50 [nM]
1 | CCOC(=O)CSc1ccc(C(=O)N2CCN(c3cccc(Cl)c3)[C@H](C)[C@H]2C)cc1Cl (racemic) [Example 52, (±) Ethyl 2-((2-chloro-4-(4-(3-chlorophenyl)-trans-2,3-dimethylpiperazine-1-carbonyl)phenyl)thio)acetate] | > 10000
2 | CCOC(=O)CS(=O)(=O)c1ccc(C(=O)N2CCN(c3cccc(Cl)c3)[C@H](C)[C@H]2C)cc1Cl (racemic) [Example 53, (±) Ethyl 2-((2-chloro-4-(4-(3-chlorophenyl)-trans-2,3-dimethylpiperazine-1-carbonyl)phenyl)sulfonyl)acetate] | 339
3 | CCOC(=O)C[S+]([O-])c1ccc(CN2CCN(c3cccc(Cl)c3)[C@H](C)[C@H]2C)cc1Cl (mixture of isomers) [Example 54, (±) Ethyl 2-((2-chloro-4-((4-(3-chlorophenyl)-trans-2,3-dimethylpiperazin-1-yl)methyl)phenyl)sulfinyl)acetate] | 6.17
4 | CCOC(=O)CC(=O)c1ccc(C(=O)N2CCN(c3cccc(Cl)c3)[C@H](C)[C@H]2C)cc1Cl (racemic) [Example 55, (±) Ethyl 3-(2-chloro-4-(4-(3-chlorophenyl)-trans-2,3-dimethylpiperazine-1-carbonyl)phenyl)-3-oxopropanoate] | 1150
5 | CCC(C)OC(=O)C[S+]([O-])c1ccc(C(=O)N2CCN(c3cccc(Cl)c3)[C@H](C)[C@H]2C)cc1Cl (mixture of isomers) [Example 57, (±) sec-Butyl 2-((2-chloro-4-(4-(3-chlorophenyl)-trans-2,3-dimethylpiperazine-1-carbonyl)phenyl)sulfinyl)acetate] | 3.89
6 | C[C@@H]1[C@@H](C)N(c2cccc(Cl)c2)CCN1C(=O)c1ccc([S+]([O-])CC(=O)OC2CCC2)c(Cl)c1 (mixture of isomers) [Example 58, (±) Cyclobutyl 2-((2-chloro-4-(4-(3-chlorophenyl)-trans-2,3-dimethylpiperazine-1-carbonyl)phenyl)sulfinyl)acetate] | 4.17
7 | C[C@@H]1[C@@H](C)N(c2cccc(Cl)c2)CCN1C(=O)c1ccc([S+]([O-])CC(=O)OC2CCCCC2)c(Cl)c1 (mixture of isomers) [Example 60, (±) Cyclohexyl 2-((2-chloro-4-(4-(3-chlorophenyl)-trans-2,3-dimethylpiperazine-1-carbonyl)phenyl)sulfinyl)acetate] | 2.95
8 | COCCOC(=O)C[S+]([O-])c1ccc(C(=O)N2CCN(c3cccc(Cl)c3)[C@@H](C)[C@@H]2C)cc1Cl (mixture of isomers) [Example 65, (±) 2-Methoxyethyl 2-((2-chloro-4-(4-(3-chlorophenyl)-trans-2,3-dimethylpiperazine-1-carbonyl)phenyl)sulfinyl)acetate] | 9.12
9 | COCC(C)OC(=O)C[S+]([O-])c1ccc(C(=O)N2CCN(c3cccc(Cl)c3)[C@@H](C)[C@@H]2C)cc1Cl (mixture of isomers) [Example 66, (±) 1-Methoxypropan-2-yl 2-((2-chloro-4-(4-(3-chlorophenyl)-trans-2,3-dimethylpiperazine-1-carbonyl)phenyl)sulfinyl)acetate] | 46.8
10 | C[C@H]1[C@H](C)N(c2cccc(Cl)c2)CCN1C(=O)c1ccc([S+]([O-])CC(=O)OC2CCOCC2)c(Cl)c1 (mixture of isomers) [Example 67, (±) tetraHydro-2H-pyran-4-yl 2-((2-chloro-4-(4-(3-chlorophenyl)-trans-2,3-dimethylpiperazine-1-carbonyl)phenyl)sulfinyl)acetate] | 12.9
11 | CCOC(=O)C[S+]([O-])c1ccc(C(=O)N2CCN(c3cncc(Cl)c3)[C@@H](C)[C@@H]2C)cc1Cl (mixture of isomers) [Example 68, (±) Ethyl 2-((2-chloro-4-(-4-(5-chloropyridin-3-yl)-trans-2,3-dimethylpiperazine-1-carbonyl)phenyl)sulfinyl)acetate] | 20.9
12 | CCOC(=O)C[S+]([O-])c1ccc(C(=O)N2CCN(c3ccnc(Cl)c3)[C@@H](C)[C@@H]2C)cc1Cl (mixture of isomers) [Example 69, (±) Ethyl 2-((2-chloro-4-(-4-(2-chloropyridin-4-yl)-trans-2,3-dimethylpiperazine-1-carbonyl)phenyl)sulfinyl) acetate] | 87.1

The remaining lines, values ahead:

Row | IC50 [nM] | SMILES
13 | 9.12 | CCOC(=O)C[S+]([O-])c1ccc(C(=O)N2CCN(c3cccc(Cl)n3)[C@@H](C)[C@@H]2C)cc1Cl (mixture of isomers) [Example 70, (±) Ethyl 2-((2-chloro-4-(-4-(6-chloropyridin-2-yl)-trans-2,3-dimethylpiperazine-1-carbonyl)phenyl)sulfinyl)acetate]
14 | 8.71 | CCOC(=O)C[S+]([O-])c1ccc(C(=O)N2CCN(c3cc(Cl)ccn3)[C@@H](C)[C@@H]2C)cc1Cl (mixture of isomers) [Example 71, (±) Ethyl 2-((2-chloro-4-(-4-(4-chloropyridin-2-yl)-trans-2,3-dimethylpiperazine-1-carbonyl)phenyl)sulfinyl)acetate]
15 | 20.9 | C[C@H]1[C@H](C)N(c2cccc(Cl)c2)CCN1C(=O)c1ccc(SCC(=O)C(F)(F)F)c(Cl)c1 (racemic) [Example 72, (±) 3-((2-Chloro-4-(4-(3-chlorophenyl)-trans-2,3-dimethylpiperazine-1-carbonyl)phenyl)thio)-1,1,1-trifluoropropan-2-one]
16 | 7.41 | C[C@H]1[C@H](C)N(c2cccc(Cl)c2)CCN1C(=O)c1ccc([S+]([O-])CC(=O)C(F)(F)F)c(Cl)c1 (mixture of isomers) [Example 73, (±) 3-((2-Chloro-4-(4-(3-chlorophenyl)-trans-2,3-dimethylpiperazine-1-carbonyl)phenyl)sulfinyl)-1,1,1-trifluoropropan-2-one]
17 | 204 | C[C@H]1[C@H](C)N(c2cccc(Cl)c2)CCN1C(=O)c1ccc([S+]([O-])CC(=O)c2ncco2)c(Cl)c1 (mixture of isomers) [Example 74, (±) 2-((2-Chloro-4-(4-(3-chlorophenyl)-trans-2,3-dimethylpiperazine-1-carbonyl)phenyl)sulfinyl)-1-(oxazol-2-yl)ethan-1-one]
18 | 234 | C[C@H]1[C@H](C)N(c2cccc(Cl)c2)CCN1C(=O)c1ccc([S+]([O-])CC(=O)c2nccs2)c(Cl)c1 (mixture of isomers) [Example 75, (±) 2-((2-Chloro-4-(4-(3-chlorophenyl)-trans-2,3-dimethylpiperazine-1-carbonyl)phenyl)sulfinyl)-1-(thiazol-2-yl)ethan-1-one]
19 | 380 | Cc1cnc(C(=O)C[S+]([O-])c2ccc(C(=O)N3CCN(c4cccc(Cl)c4)[C@@H](C)[C@@H]3C)cc2Cl)o1 (mixture of isomers) [Example 76, (±) 2-((2-Chloro-4-(4-(3-chlorophenyl)-trans-2,3-dimethylpiperazine-1-carbonyl)phenyl)sulfinyl)-1-(5-methyloxazol-2-yl)ethan-1-one]
20 | 2.34 | C[C@H]1[C@H](C)N(c2cccc(Cl)c2)CCN1C(=O)c1ccc([S+]([O-])CC(=O)C(F)F)c(Cl)c1 (mixture of isomers) [Example 77, (±) 3-((2-Chloro-4-(4-(3-chlorophenyl)-trans-2,3-dimethylpiperazine-1-carbonyl)phenyl)sulfinyl)-1,1-difluoropropan-2-one]
21 | 1.48 | C[C@H]1[C@H](C)N(c2cccc(Cl)c2)CCN1C(=O)c1ccc([S+]([O-])CC(=O)C(C)(F)F)c(Cl)c1 (mixture of isomers) [Example 78, (±) 1-((2-Chloro-4-(4-(3-chlorophenyl)-trans-2,3-dimethylpiperazine-1-carbonyl)phenyl)sulfinyl)-3,3-difluorobutan-2-one]
22 | 87.1 | C[C@H]1[C@H](C)N(c2cccc(Cl)c2)CCN1C(=O)c1ccc([S+]([O-])CC(=O)C(F)(F)c2ccccc2)c(Cl)c1 (mixture of isomers) [Example 80, (±) 3-((2-Chloro-4-(4-(3-chlorophenyl)-trans-2,3-dimethylpiperazine-1-carbonyl)phenyl)sulfinyl)-1,1-difluoro-1-phenylpropan-2-one]
23 | 0.851 | C[C@H]1[C@H](C)N(c2cccc(Cl)n2)CCN1C(=O)c1ccc([S+]([O-])CC(=O)C(C)(F)F)c(Cl)c1 (mixture of isomers) [Example 81, (±) 1-((2-chloro-4-(4-(6-chloropyridin-2-yl)-trans-2,3-dimethylpiperazine-1-carbonyl)phenyl)sulfinyl)-3,3-difluorobutan-2-one]
24 | 0.123 | CCC(F)(F)C(=O)C[S+]([O-])c1ccc(C(=O)N2CCN(c3cccc(Cl)n3)[C@@H](C)[C@@H]2C)cc1Cl (mixture of isomers) [Example 82, (±) 1-((2-Chloro-4-(4-(6-chloropyridin-2-yl)-trans-2,3-dimethylpiperazine-1-carbonyl)phenyl)sulfinyl)-3,3-difluoropentan-2-one]
